Results from patent US7405205B2, “Antitumor antisense sequences directed against R1 and R2 components of ribonucleotide reductase” (Lorus Therapeutics Inc., priority 1996, dated 2008).
Strand notation (5' to 3'): a small letter for the sugar, then the base; units joined by * are phosphorothioate-linked, units joined directly phosphodiester-linked; [ ] holds rarer units or linkages, { } end groups; capitals alone tell only the bases. d = 2'-deoxy (DNA)

The sequences below were run on A549 lung cell carcinoma (assay: Relative colony forming efficiency after antisense treatment (Table 13)). Conditions: 0.2 μM antisense oligodeoxyribonucleotide phosphorothioate; A549 cells; averages of 2-8 determinations.
Format: cell-based, human

Sequence	Reduced relative colony forming efficiency, expressed as % inhibition, A549 [%]
AAGCGGCGGGGGTTTTCTCT (dA*dA*dG*dC*dG*dG*dC*dG*dG*dG*dG*dG*dT*dT*dT*dT*dC*dT*dC*dT; antisense) [AS-II-414-20]	12.44
ACTGCCATTGTCACTGCTAT (DNA, all phosphorothioate, methylation of C not given here) [AS-II-1581-20]	90.55
AGCCTCTGCCTTCTTATACA (dA*dG*dC*dC*dT*dC*dT*dG*dC*dC*dT*dT*dC*dT*dT*dA*dT*dA*dC*dA; antisense) [AS-II-472-20]	96.99
ATCCAGCGCAAGGCCCAGTC (antisense; DNA, all phosphorothioate, methylation of C not given here) [AS-II-816-20]	78.4
ATGGTACTCGATGGGGAAGA (dA*dT*dG*dG*dT*dA*dC*dT*dC*dG*dA*dT*dG*dG*dG*dG*dA*dA*dG*dA) [AS-II-439-20]	76.46
CAAATGGGTTCTCTACTCTG (DNA, all phosphorothioate, methylation of C not given here) [AS-II-1217-20]	91.49
CCTCTGATACTCGCCTACTC (DNA, all phosphorothioate, methylation of C not given here) [AS-II-1288-20]	61.04
GAAGCCATAGAAACAGCGGG (antisense; DNA, all phosphorothioate, methylation of C not given here) [AS-II-667-20]	70.3
GAAGTCAGCATCCAAGGTAA (DNA, all phosphorothioate, methylation of C not given here) [AS-II-1342-20]	65.67
GCATCCAAGGTAAAAGAATT (DNA, all phosphorothioate, methylation of C not given here) [AS-II-1335-20]	78.59
TCCTCGCGGTCTTGCTGGCC (dT*dC*dC*dT*dC*dG*dC*dG*dG*dT*dC*dT*dT*dG*dC*dT*dG*dG*dC*dC; antisense) [AS-II-323-20]	91.24
TTGTGTACCAGGTGTTTGAA (DNA, all phosphorothioate, methylation of C not given here) [AS-II-1023-20]	34.52

What follows are sequences tested on HCT116 colon cell carcinoma in the same assay as above. Conditions: 0.2 μM antisense oligodeoxyribonucleotide phosphorothioate; HCT116 cells; averages of 2-8 determinations.
Format: cell-based, human

Sequence	Reduced relative colony forming efficiency, expressed as % inhibition, HCT116 [%]
AAGCGGCGGGGGTTTTCTCT (dA*dA*dG*dC*dG*dG*dC*dG*dG*dG*dG*dG*dT*dT*dT*dT*dC*dT*dC*dT; antisense) [AS-II-414-20]	19.1
ACTGCCATTGTCACTGCTAT (DNA, all phosphorothioate, methylation of C not given here) [AS-II-1581-20]	66.85
AGCCTCTGCCTTCTTATACA (dA*dG*dC*dC*dT*dC*dT*dG*dC*dC*dT*dT*dC*dT*dT*dA*dT*dA*dC*dA; antisense) [AS-II-472-20]	67.23
ATCCAGCGCAAGGCCCAGTC (antisense; DNA, all phosphorothioate, methylation of C not given here) [AS-II-816-20]	88.22
ATGGTACTCGATGGGGAAGA (dA*dT*dG*dG*dT*dA*dC*dT*dC*dG*dA*dT*dG*dG*dG*dG*dA*dA*dG*dA) [AS-II-439-20]	64.7
CAAATGGGTTCTCTACTCTG (DNA, all phosphorothioate, methylation of C not given here) [AS-II-1217-20]	68.68
CCTCTGATACTCGCCTACTC (DNA, all phosphorothioate, methylation of C not given here) [AS-II-1288-20]	66.43
GAAGCCATAGAAACAGCGGG (antisense; DNA, all phosphorothioate, methylation of C not given here) [AS-II-667-20]	76.9
GAAGTCAGCATCCAAGGTAA (DNA, all phosphorothioate, methylation of C not given here) [AS-II-1342-20]	73.74
GCATCCAAGGTAAAAGAATT (DNA, all phosphorothioate, methylation of C not given here) [AS-II-1335-20]	67.87
TCCTCGCGGTCTTGCTGGCC (dT*dC*dC*dT*dC*dG*dC*dG*dG*dT*dC*dT*dT*dG*dC*dT*dG*dG*dC*dC; antisense) [AS-II-323-20]	55.8

What follows are sequences tested on HepG2 hepatocellular carcinoma (assay: Relative colony forming efficiency after antisense treatment (Table 13, FIG. 12)). Conditions: 0.2 μM antisense oligodeoxyribonucleotide phosphorothioate; HepG2 cells; averages of 2-8 determinations.
Format: cell-based, human

Sequence	Reduced relative colony forming efficiency, expressed as % inhibition, HepG2 [%]
AAGCGGCGGGGGTTTTCTCT (dA*dA*dG*dC*dG*dG*dC*dG*dG*dG*dG*dG*dT*dT*dT*dT*dC*dT*dC*dT; antisense) [AS-II-414-20]	30.89
ACTGCCATTGTCACTGCTAT (DNA, all phosphorothioate, methylation of C not given here) [AS-II-1581-20]	93.07
ATCCAGCGCAAGGCCCAGTC (antisense; DNA, all phosphorothioate, methylation of C not given here) [AS-II-816-20]	93.08
ATGGTACTCGATGGGGAAGA (dA*dT*dG*dG*dT*dA*dC*dT*dC*dG*dA*dT*dG*dG*dG*dG*dA*dA*dG*dA) [AS-II-439-20]	73.04
CCTCTGATACTCGCCTACTC (DNA, all phosphorothioate, methylation of C not given here) [AS-II-1288-20]	80.41
CGGCTCATCCTCCACGC (dC*dG*dG*dC*dT*dC*dA*dT*dC*dC*dT*dC*dC*dA*dC*dG*dC) [AS-II-391-17]	60.64
GAAGCCATAGAAACAGCGGG (antisense; DNA, all phosphorothioate, methylation of C not given here) [AS-II-667-20]	88.23
GAAGTCAGCATCCAAGGTAA (DNA, all phosphorothioate, methylation of C not given here) [AS-II-1342-20]	82.2
GCATCCAAGGTAAAAGAATT (DNA, all phosphorothioate, methylation of C not given here) [AS-II-1335-20]	72.98
TCCTCGCGGTCTTGCTGGCC (dT*dC*dC*dT*dC*dG*dC*dG*dG*dT*dC*dT*dT*dG*dC*dT*dG*dG*dC*dC; antisense) [AS-II-323-20]	96.39

What follows are sequences tested on PC-3 prostrate cell adenocarcinoma (assay: Relative colony forming efficiency after antisense treatment (Table 13)). Conditions: 0.2 μM antisense oligodeoxyribonucleotide phosphorothioate; PC-3 cells; averages of 2-8 determinations.
Format: cell-based, human

Sequence	Reduced relative colony forming efficiency, expressed as % inhibition, PC-3 [%]
AAGCGGCGGGGGTTTTCTCT (dA*dA*dG*dC*dG*dG*dC*dG*dG*dG*dG*dG*dT*dT*dT*dT*dC*dT*dC*dT; antisense) [AS-II-414-20]	60.94
ACTGCCATTGTCACTGCTAT (DNA, all phosphorothioate, methylation of C not given here) [AS-II-1581-20]	85.83
AGCCTCTGCCTTCTTATACA (dA*dG*dC*dC*dT*dC*dT*dG*dC*dC*dT*dT*dC*dT*dT*dA*dT*dA*dC*dA; antisense) [AS-II-472-20]	90.7
ATCCAGCGCAAGGCCCAGTC (antisense; DNA, all phosphorothioate, methylation of C not given here) [AS-II-816-20]	94.08
ATGGTACTCGATGGGGAAGA (dA*dT*dG*dG*dT*dA*dC*dT*dC*dG*dA*dT*dG*dG*dG*dG*dA*dA*dG*dA) [AS-II-439-20]	77.66
CAAATGGGTTCTCTACTCTG (DNA, all phosphorothioate, methylation of C not given here) [AS-II-1217-20]	81.03
CCAGCACTATAAACAGACAG (DNA, all phosphorothioate, methylation of C not given here) [AS-II-1517-20]	91.75
CCGTGGGCTCCTGGAAGATC (dC*dC*dG*dT*dG*dG*dG*dC*dT*dC*dC*dT*dG*dG*dA*dA*dG*dA*dT*dC; antisense) [AS-II-344-20]	80.06
CCTCTGATACTCGCCTACTC (DNA, all phosphorothioate, methylation of C not given here) [AS-II-1288-20]	93.55
CGGCTCATCCTCCACGC (dC*dG*dG*dC*dT*dC*dA*dT*dC*dC*dT*dC*dC*dA*dC*dG*dC) [AS-II-391-17]	93.25
GAAACCAAATAAATCAAGCT (DNA, all phosphorothioate, methylation of C not given here) [AS-II-1790-20]	87.86
GAAGCCATAGAAACAGCGGG (antisense; DNA, all phosphorothioate, methylation of C not given here) [AS-II-667-20]	91.8
GAAGTCAGCATCCAAGGTAA (DNA, all phosphorothioate, methylation of C not given here) [AS-II-1342-20]	89.84
GACGGCTGGGACAGGGTGCA (antisense dG*dA*dC*dG*dG*dC*dT*dG*dG*dG*dA*dC*dA*dG*dG*dG*dT*dG*dC*dA) [AS-II-134-20]	77.51
GCATCCAAGGTAAAAGAATT (DNA, all phosphorothioate, methylation of C not given here) [AS-II-1335-20]	90.04
TCCTCGCGGTCTTGCTGGCC (dT*dC*dC*dT*dC*dG*dC*dG*dG*dT*dC*dT*dT*dG*dC*dT*dG*dG*dC*dC; antisense) [AS-II-323-20]	79.76
TTGTGTACCAGGTGTTTGAA (DNA, all phosphorothioate, methylation of C not given here) [AS-II-1023-20]	87.63

These sequences were tested on T24 bladder cell carcinoma in the same assay as above. Conditions: 0.2 μM antisense oligodeoxyribonucleotide phosphorothioate; T24 cells; averages of 2-8 determinations.
Format: cell-based, human

Sequence	Reduced relative colony forming efficiency, expressed as % inhibition, T24 [%]
AAGCGGCGGGGGTTTTCTCT (dA*dA*dG*dC*dG*dG*dC*dG*dG*dG*dG*dG*dT*dT*dT*dT*dC*dT*dC*dT; antisense) [AS-II-414-20]	11.67
ACTGCCATTGTCACTGCTAT (DNA, all phosphorothioate, methylation of C not given here) [AS-II-1581-20]	68.22
AGCCTCTGCCTTCTTATACA (dA*dG*dC*dC*dT*dC*dT*dG*dC*dC*dT*dT*dC*dT*dT*dA*dT*dA*dC*dA; antisense) [AS-II-472-20]	69.26
ATCCAGCGCAAGGCCCAGTC (antisense; DNA, all phosphorothioate, methylation of C not given here) [AS-II-816-20]	73.91
ATGGTACTCGATGGGGAAGA (dA*dT*dG*dG*dT*dA*dC*dT*dC*dG*dA*dT*dG*dG*dG*dG*dA*dA*dG*dA) [AS-II-439-20]	67.84
CAAATGGGTTCTCTACTCTG (DNA, all phosphorothioate, methylation of C not given here) [AS-II-1217-20]	66.36
CCTCTGATACTCGCCTACTC (DNA, all phosphorothioate, methylation of C not given here) [AS-II-1288-20]	56.75
GAAGCCATAGAAACAGCGGG (antisense; DNA, all phosphorothioate, methylation of C not given here) [AS-II-667-20]	70.48
GAAGTCAGCATCCAAGGTAA (DNA, all phosphorothioate, methylation of C not given here) [AS-II-1342-20]	59.76
GCATCCAAGGTAAAAGAATT (DNA, all phosphorothioate, methylation of C not given here) [AS-II-1335-20]	59.95
TTGTGTACCAGGTGTTTGAA (DNA, all phosphorothioate, methylation of C not given here) [AS-II-1023-20]	58.26

These sequences were tested on MIA PaCa-2 pancreatic cell carcinoma in the same assay as above. Conditions: 0.2 μM antisense oligodeoxyribonucleotide phosphorothioate; MIA PaCa-2 cells; averages of 2-8 determinations.
Format: cell-based, human

Sequence	Reduced relative colony forming efficiency, expressed as % inhibition, MIA PaCa-2 [%]
AAGCGGCGGGGGTTTTCTCT (dA*dA*dG*dC*dG*dG*dC*dG*dG*dG*dG*dG*dT*dT*dT*dT*dC*dT*dC*dT; antisense) [AS-II-414-20]	36.11
ACTGCCATTGTCACTGCTAT (DNA, all phosphorothioate, methylation of C not given here) [AS-II-1581-20]	24.07
AGCCTCTGCCTTCTTATACA (dA*dG*dC*dC*dT*dC*dT*dG*dC*dC*dT*dT*dC*dT*dT*dA*dT*dA*dC*dA; antisense) [AS-II-472-20]	97.13
ATCCAGCGCAAGGCCCAGTC (antisense; DNA, all phosphorothioate, methylation of C not given here) [AS-II-816-20]	93.21
ATGGTACTCGATGGGGAAGA (dA*dT*dG*dG*dT*dA*dC*dT*dC*dG*dA*dT*dG*dG*dG*dG*dA*dA*dG*dA) [AS-II-439-20]	92.69
CAAATGGGTTCTCTACTCTG (DNA, all phosphorothioate, methylation of C not given here) [AS-II-1217-20]	34.85
CCTCTGATACTCGCCTACTC (DNA, all phosphorothioate, methylation of C not given here) [AS-II-1288-20]	80.71
CGGCTCATCCTCCACGC (dC*dG*dG*dC*dT*dC*dA*dT*dC*dC*dT*dC*dC*dA*dC*dG*dC) [AS-II-391-17]	26.35
GAAGCCATAGAAACAGCGGG (antisense; DNA, all phosphorothioate, methylation of C not given here) [AS-II-667-20]	85.26
GAAGTCAGCATCCAAGGTAA (DNA, all phosphorothioate, methylation of C not given here) [AS-II-1342-20]	73.77
GCATCCAAGGTAAAAGAATT (DNA, all phosphorothioate, methylation of C not given here) [AS-II-1335-20]	78.78
TCCTCGCGGTCTTGCTGGCC (dT*dC*dC*dT*dC*dG*dC*dG*dG*dT*dC*dT*dT*dG*dC*dT*dG*dG*dC*dC; antisense) [AS-II-323-20]	97.55
TTGTGTACCAGGTGTTTGAA (DNA, all phosphorothioate, methylation of C not given here) [AS-II-1023-20]	42.82
